Source: ChEMBL document CHEMBL3045228, “QSAR study of a series of acyl coenzyme A (CoA): cholesterol acyltransferase inhibitors using genetic function approximation” (Med Chem Res, 2011)
pIC50: −log10 of the molar value.

Assay: Inhibition of Acyl-coenzyme A:cholesterol acyltransferase (unknown origin) assessed as intracellular cholesterol esterification by cell based assay
Details: Homo sapiens; for pIC50: read-out: IC50; for IC50: read-out: pIC50 (converted)

pIC50	IC50	Structure (SMILES)
6.68	210 nM	CCCCCC(C)N(Cc1ccc(OCCC(C)C)cc1)C(Nc1ccc(N(C)C)cc1)=C1C(=O)OC(C)(C)OC1=O (centres undefined)
5.52	3000 nM	COc1ccc(NC(NCCCCCCCCc2ccc(CCC(C)C)cc2)=C2C(=O)OC(C)(C)OC2=O)c(OC)c1
5.96	1100 nM	CN(C)c1ccc(NC(NCCCCCCCCc2ccc(C(C)(C)C)cc2)=C2C(=O)OC(C)(C)OC2=O)cc1
6.31	490 nM	CCCCCC(C)N(Cc1ccc(CC(C)(C)C)cc1)C(Nc1ccc(C)cc1C)=C1C(=O)OC(C)(C)OC1=O (centres undefined)
5.89	1300 nM	COc1ccc(NC(=C2C(=O)OC(C)(C)OC2=O)N(Cc2ccc(CCC(C)C)cc2)C(CC(C)C)CC(C)C)c(OC)c1
5.46	3500 nM	COc1cc(NC(NCCCCCCCCc2ccc(OCCC(C)C)cc2)=C2C(=O)OC(C)(C)OC2=O)cc(OC)c1OC
6.11	769 nM	CCCCCC(C)N(Cc1ccc(C(C)(C)C)cc1)C(Nc1cc(OC)c(OC)c(OC)c1)=C1C(=O)OC(C)(C)OC1=O (centres undefined)
6.30	500 nM	CCCCCCOc1ccc(NC(NCCCCCCCCc2ccc(C(C)(C)C)cc2)=C2C(=O)OC(C)(C)OC2=O)cc1
6.04	910 nM	COc1ccc(NC(NCCCCCCCCc2ccc(CC(C)C)cc2)=C2C(=O)OC(C)(C)OC2=O)c(OC)c1
7.36	44 nM	CCCCCCC(CCCCCC)N(Cc1ccc(CC(C)C)cc1)C(Nc1ccc(N(C)C)cc1)=C1C(=O)OC(C)(C)OC1=O
6.60	250 nM	CCCCCC(C)N(Cc1ccc(C(C)(C)C)cc1)C(Nc1ccc(N(C)C)cc1)=C1C(=O)OC(C)(C)OC1=O (centres undefined)
6.28	530 nM	COc1ccc(NC(=C2C(=O)OC(C)(C)OC2=O)N(Cc2ccc(CC(C)C)cc2C)C(CO[SiH](C)C)CC(C)C)c(OC)c1 (centres undefined)
6.59	260 nM	CCCCCc1ccc(CN(C(Nc2ccc(N(C)C)cc2)=C2C(=O)OC(C)(C)OC2=O)C(C)CCCCC)cc1 (centres undefined)
6.62	240 nM	CCCCCC(C)N(Cc1ccc(CC(C)C)cc1)C(Nc1ccc(OC)cc1OC)=C1C(=O)OC(C)(C)OC1=O (centres undefined)
6.80	160 nM	CCCCCC(C)N(Cc1ccc(CCC(C)C)cc1)C(Nc1ccc(N(C)C)cc1C)=C1C(=O)OC(C)(C)OC1=O (centres undefined)
6.08	830 nM	CCCCCC(C)N(Cc1ccc(CC(C)(C)C)cc1)C(Nc1ccc(OC)cc1OC)=C1C(=O)OC(C)(C)OC1=O (centres undefined)
6.15	700 nM	COc1cc(OC)c(NC(NCCCCCCCCc2ccc(CC(C)(C)C)cc2)=C2C(=O)OC(C)(C)OC2=O)c(OC)c1
6.72	640 nM	CCCCC(CC)N(Cc1ccc(CC(C)(C)C)cc1)C(Nc1ccc(N(C)C)cc1)=C1C(=O)OC(C)(C)OC1=O (centres undefined)
5.55	2800 nM	COc1cc(NC(NCCCCCCCCc2ccc(C(C)(C)C)cc2)=C2C(=O)OC(C)(C)OC2=O)cc(OC)c1OC
6.27	540 nM	CCCCCC(C)N(Cc1ccc(OC(C)CCC)cc1)C(Nc1ccc(OC)cc1OC)=C1C(=O)OC(C)(C)OC1=O (centres undefined)
6.46	350 nM	CCCCCC(C)N(Cc1ccc(CC(C)C)cc1)C(Nc1ccc(N(C)C)cc1C)=C1C(=O)OC(C)(C)OC1=O (centres undefined)
6.17	242 nM	CCCCCc1ccc(CN(C(Nc2ccc(N(C)C)cc2C)=C2C(=O)OC(C)(C)OC2=O)C(C)CCCCC)cc1 (centres undefined)
6.16	690 nM	CCCCOc1ccc(NC(=C2C(=O)OC(C)(C)OC2=O)N(Cc2ccc(C(C)(C)C)cc2)C(C)CCCC(C)C)cc1 (centres undefined)
5.64	2300 nM	COc1ccc(NC(NCCCCCCCCCCCc2ccc(C(C)(C)C)cc2)=C2C(=O)OC(C)(C)OC2=O)c(OC)c1

pIC50	IC50	Structure (SMILES)
6.64	230 nM	CCCCCC(C)N(Cc1ccc(C(C)(C)C)cc1)C(Nc1ccc(OCCCC)cc1)=C1C(=O)OC(C)(C)OC1=O (centres undefined)
6.43	370 nM	COc1ccc(NC(=C2C(=O)OC(C)(C)OC2=O)N(Cc2ccc(CC(C)C)cc2)C(C)CCCC(C)C)c(OC)c1 (centres undefined)
5.55	2800 nM	COc1ccc(NC(NCCc2ccccc2)=C2C(=O)OC(C)(C)OC2=O)c(OC)c1
6.43	370 nM	CC(C)CCOc1ccc(CCCCCCCCNC(Nc2ccc(N(C)C)cc2)=C2C(=O)OC(C)(C)OC2=O)cc1
6.26	550 nM	CCCCCC(C)N(Cc1ccc(OCC(C)C)cc1)C(Nc1ccc(OC)cc1OC)=C1C(=O)OC(C)(C)OC1=O (centres undefined)
6.04	920 nM	CC1(C)OC(=O)C(=C(NCCCCCCCCc2ccc(C(C)(C)C)cc2)Nc2ccc(Oc3ccccc3)cc2)C(=O)O1
6.05	899 nM	COc1ccc(NC(NCCCCCCCCc2ccc(C(C)(C)C)cc2)=C2C(=O)OC(C)(C)OC2=O)c(OC)c1
7.05	89.9 nM	CCCCCC(C)N(Cc1ccc(OCC(C)C)cc1)C(Nc1ccc(N(C)C)cc1)=C1C(=O)OC(C)(C)OC1=O (centres undefined)
6.08	839 nM	CCCCCc1ccc(CCCCCCCCNC(Nc2ccc(OC)cc2OC)=C2C(=O)OC(C)(C)OC2=O)cc1
6.59	260 nM	COc1ccc(NC(NCc2ccc(C(C)(C)C)cc2)=C2C(=O)OC(C)(C)OC2=O)c(OC)c1
6.57	270 nM	CC(C)CCCC(C)N(Cc1ccc(CC(C)C)cc1)C(Nc1ccc(N(C)C)cc1)=C1C(=O)OC(C)(C)OC1=O (centres undefined)
6.42	380 nM	CCCCCC(C)N(Cc1ccc(CC(C)(C)C)cc1)C(Nc1c(C)cc(N(C)C)cc1C)=C1C(=O)OC(C)(C)OC1=O (centres undefined)
6.62	240 nM	CC(C)(C)Cc1ccc(CCCCCCCNC(Nc2cc(C(C)(C)C)c(O)c(C(C)(C)C)c2)=C2C(=O)OC(C)(C)OC2=O)cc1
6.44	360 nM	CCCCCc1ccc(CN(C(Nc2ccc(OC)cc2OC)=C2C(=O)OC(C)(C)OC2=O)C(C)CCCCC)cc1 (centres undefined)
5.28	5200 nM	CC(C)Cc1ccc(CN(C(Nc2ccc(N(C)C)cc2)=C2C(=O)OC(C)(C)OC2=O)C(C)CCCC(C)(C)O)cc1 (centres undefined)
6.27	540 nM	CCCCC(CC)N(Cc1ccc(CC(C)(C)C)cc1)C(Nc1ccc(OC)cc1OC)=C1C(=O)OC(C)(C)OC1=O (centres undefined)
6.39	410 nM	CCCCCCOc1ccc(NC(=C2C(=O)OC(C)(C)OC2=O)N(Cc2ccc(CC(C)C)cc2)C(C)CCCCC)cc1 (centres undefined)
5.89	1300 nM	CC(C)CCc1ccc(CN(C(Nc2ccc(N(C)C)cc2)=C2C(=O)OC(C)(C)OC2=O)C(CC(C)C)CC(C)C)cc1
6.01	979 nM	Cc1cc(N(C)C)cc(C)c1NC(NCCCCCCCCc1ccc(C(C)(C)C)cc1)=C1C(=O)OC(C)(C)OC1=O
5.82	1500 nM	COc1ccc(NC(NCCCCCCCCc2ccc(OCCC(C)C)cc2)=C2C(=O)OC(C)(C)OC2=O)c(OC)c1
6.59	260 nM	CCCCCC(C)N(Cc1ccc(CC(C)(C)C)cc1)C(Nc1ccc(N(C)C)cc1C)=C1C(=O)OC(C)(C)OC1=O (centres undefined)
6.54	290 nM	COc1ccc(NC(=C2C(=O)OC(C)(C)OC2=O)N(Cc2ccc(CC(C)(C)C)cc2)CC2CCCC2c2ccccc2)c(OC)c1 (centres undefined)
6.64	230 nM	COc1ccc(NC(=C2C(=O)OC(C)(C)OC2=O)N(Cc2ccc(C(C)(C)C)cc2)C(C)CCCC(C)C)c(OC)c1 (centres undefined)
